Experimental data published in US10092546B2, “Imidazole derivatives” (Hoffman-La Roche Inc., priority 2015, dated 2018).
Blank lines part the entries; values can stand above or below the compound they belong to.

Target: T1, human EAAT3 (Homo sapiens, UniProt P43005)
T1 construct: expressed in transfected cells
T1 sequence (P43005 1-524): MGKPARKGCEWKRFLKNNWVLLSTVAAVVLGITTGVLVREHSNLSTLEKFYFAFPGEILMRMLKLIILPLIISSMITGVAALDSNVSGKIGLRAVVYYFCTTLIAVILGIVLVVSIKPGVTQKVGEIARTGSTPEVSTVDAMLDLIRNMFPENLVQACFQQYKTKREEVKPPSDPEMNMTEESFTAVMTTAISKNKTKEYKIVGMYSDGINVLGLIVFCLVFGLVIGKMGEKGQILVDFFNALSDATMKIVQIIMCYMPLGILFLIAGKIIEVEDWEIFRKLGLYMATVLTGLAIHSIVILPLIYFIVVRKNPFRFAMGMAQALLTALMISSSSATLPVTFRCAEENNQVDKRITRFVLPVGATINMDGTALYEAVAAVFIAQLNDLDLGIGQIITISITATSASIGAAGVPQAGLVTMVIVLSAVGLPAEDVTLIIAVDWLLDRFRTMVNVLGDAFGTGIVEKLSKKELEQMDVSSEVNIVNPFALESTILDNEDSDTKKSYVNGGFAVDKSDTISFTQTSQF
Experiment: FLIPR Membrane Potential (FMP) assay, antagonist potency at human EAAT3
Type: cell-based
Settings: HEK-293 cells stably expressing human EAAT3; L-glutamate as agonist at EC80; antagonist applied 15 min before; Kb by Cheng-Prusoff from IC50
Description: The FLIPR Membrane Potential (FMP) Assay
HEK-293 cells stably expressing human EAAT3 were seeded at 55 000 cells/well in growth medium (DMEM glutamate free (Invitrogen 11960-044), 1% Pen Strep (10 ml/l GIBCO BRL No 15140-023), 10% FCS non dialysed heat inactivated, 5 mg/l puromycin) in poly-D-lysine treated 96-well black microtiter plates with clear-bottom. After 24 h, the growth medium was removed and 100 μl/well of Krebs buffer (140 mM NaCl, 4.7 mM KCl, 2.5 mM CaCl2, 1.2 mM MgCl2, 11 mM HEPES, 10 mM D-glucose, pH=7.4) added. The cells were then loaded by adding 100 μl/well FMP assay dye (FLIPR Membrane Potential assay reagent, Molecular Devices). The 96-well plates were then incubated at 37° C. for 1 h. The depolarization of the cells will cause more dye to enter in the cells, where it will bind to intracellular proteins and lipids and cause an increase in the fluorescence signal. Antagonist potency at human EAAT3 was determined by using L-glutamate as agonist at a concentration which gives 80% of the maximum response. The antagonists were applied 15 min before the application of the agonist L-glutamate. The assays were performed at room temperature and measurements done by using a Fluorometric Imaging Plate Reader (FLIPR, Molecular Devices) and filter #2. Responses were measured as peak increase in fluorescence minus basal (i.e. fluorescence without addition of L-glutamate). Kb was determined using the Cheng-Prusoff equation Kb=IC50/[1+(A/EC50)], where IC50 is the concentration of the antagonist producing 50% inhibition, A is the concentration of the agonist against which the IC50 is being determined (at EC80) and EC50 is the concentration of the agonist producing 50% […].

- Kb: 150 nM
Compound: CC(C)c1nccn1-c1cc(C(=O)NC(C)(C)C2CC2)cc(-c2ccc(Cl)cc2)n1 [Example 15, 2-(4-Chlorophenyl)-N-(2-cyclopropylpropan-2-yl)-6-(2-propan-2-yl-imidazol-1-yl)-pyridine-4-carboxamide]

- Kb: 190 nM
Compound: CC(C)c1nccn1-c1cc(C(=O)NC(C)(C)CO)cc(-c2ccc(Cl)cc2)n1 [Example 30, 2-(4-Chlorophenyl)-N-(1-hydroxy-2-methylpropan-2-yl)-6-(2-propan-2-yl-imidazol-1-yl)-pyridine-4-carboxamide]

- Kb: 300 nM
Compound: Cc1nccn1-c1cc(C(=O)NC(C)(C)C)cc(-c2ccc(Cl)cc2)n1 [Example 10, N-tert-Butyl-2-(4-chlorophenyl)-6-(2-methyl-imidazol-1-yl)-pyridine-4-carboxamide]

- Kb: 170 nM
Compound: CC(C)(C)NC(=O)c1cc(-c2ccc(Cl)cc2)nc(-n2ccnc2C(C)(C)O)c1 [Example 33, N-tert-Butyl-2-(4-chlorophenyl)-6-[2-(2-hydroxypropan-2-yl)-imidazol-1-yl]-pyridine-4-carboxamide]

- Kb: 69 nM
Compound: CCC(C)(C)NC(=O)c1cc(-c2ccc(F)cc2)nc(-n2ccnc2C(C)C)c1 [Example 39, 2-(4-Fluorophenyl)-N-(2-methylbutan-2-yl)-6-(2-propan-2-ylimidazol-1-yl)-pyridine-4-carboxamide]

- Kb: 500 nM
Compound: CC(C)(C)NC(=O)c1cc(-c2ccc(Cl)cc2)nc(-n2ccnc2CO)c1 [Example 22, N-tert-Butyl-2-(4-chlorophenyl)-6-[2-(hydroxymethyl)-imidazol-1-yl]-pyridine-4-carboxamide]

- Kb: 140 nM
Compound: CC(C)c1nccn1-c1cc(C(=O)NC(C)(C)C)cc(-c2ccc(Cl)cc2)n1 [Example 1, N-tert-Butyl-2-(4-chlorophenyl)-6-(2-propan-2-yl-imidazol-1-yl)-pyridine-4-carboxamide]

- Kb: 460 nM
Compound: CC(C)c1nccn1-c1cc(C(=O)NC(C)(C)C)cc(-c2ccc(C(F)(F)F)cc2)n1 [Example 3, N-tert-Butyl-2-(2-propan-2-yl-imidazol-1-yl)-6-[4-(trifluoromethyl)-phenyl]-pyridine-4-carboxamide]

- Kb: 360 nM
Compound: CC(C)c1nccn1-c1cc(C(=O)NC(C)(C)C#N)cc(-c2ccc(Cl)cc2)n1 [Example 40, 2-(4-Chlorophenyl)-N-(2-cyanopropan-2-yl)-6-(2-propan-2-yl-imidazol-1-yl)-pyridine-4-carboxamide]

- Kb: 320 nM
Compound: CC(C)c1nccn1-c1cc(C(=O)NC(C)(C)C(F)(F)F)cc(-c2ccc(Cl)cc2)n1 [Example 23, 2-(4-Chlorophenyl)-6-(2-propan-2-yl-imidazol-1-yl)-N-(1,1,1-trifluoro-2-methylpropan-2-yl)-pyridine-4-carboxamide]

- Kb: 63 nM
Compound: CC(C)(C)NC(=O)c1cc(-c2ccc(Cl)cc2)nc(-n2ccnc2C(C)(C)C)c1 [Example 12, N-tert-Butyl-2-(2-tert-butyl-imidazol-1-yl)-6-(4-chlorophenyl)-pyridine-4-carboxamide]

More lines, now with the values behind:

Compound: Cc1cc(-c2cc(C(=O)NC(C)(C)C)cc(-n3ccnc3C(C)(C)C)n2)ccc1F [Example 29, N-tert-Butyl-2-(2-tert-butyl-imidazol-1-yl)-6-(4-fluoro-3-methyl-phenyl)-pyridine-4-carboxamide]
- Kb: 150 nM

Compound: CC(C)(C)NC(=O)c1cc(-c2ccc(F)cc2)nc(-n2ccnc2C(C)(C)O)c1 [Example 18, N-tert-Butyl-2-(4-fluorophenyl)-6-[2-(2-hydroxypropan-2-yl)-imidazol-1-yl]-pyridine-4-carboxamide]
- Kb: 100 nM

Compound: CC(C)(C)NC(=O)c1cc(-c2ccc(Cl)cc2)nc(-n2ccnc2)c1 [Example 9, N-tert-Butyl-2-(4-chlorophenyl)-6-imidazol-1-yl-pyridine-4-carboxamide]
- Kb: 600 nM

Compound: CC(C)c1nccn1-c1cc(C(=O)NC2(C)CCS(=O)(=O)C2)cc(-c2ccc(F)cc2)n1 (racemic) [Example 38, (RS)-2-(4-Fluorophenyl)-N-(3-methyl-1,1-dioxothiolan-3-yl)-6-(2-propan-2-ylimidazol-1-yl)-pyridine-4-carboxamide]
- Kb: 140 nM

Compound: Cc1nccn1-c1cc(C(=O)NC(C)(C)C)cc(-c2ccc(C(F)(F)F)cc2)n1 [Example 21, N-tert-Butyl-2-(2-methyl-imidazol-1-yl)-6-[4-(trifluoromethyl)-phenyl]-pyridine-4-carboxamide]
- Kb: 650 nM

Compound: CC(C)(C)NC(=O)c1cc(-c2ccc(C(F)(F)F)cc2)nc(-n2ccnc2C(C)(C)C)c1 [Example 19, N-tert-Butyl-2-(2-tert-butylimidazol-1-yl)-6-[4-(trifluoromethyl)-phenyl]-pyridine-4-carboxamide]
- Kb: 180 nM

Compound: CC(C)(C)NC(=O)c1cc(-c2ccc(F)cc2)nc(-n2ccnc2C(C)(C)C)c1 [Example 13, N-tert-Butyl-2-(2-tert-butyl-imidazol-1-yl)-6-(4-fluorophenyl)-pyridine-4-carboxamide]
- Kb: 58 nM

Compound: CC(C)(O)c1nccn1-c1cc(C(=O)NC(C)(C)C2CC2)cc(-c2ccc(Cl)cc2)n1 [Example 35, 2-(4-Chlorophenyl)-N-(2-cyclopropylpropan-2-yl)-6-[2-(2-hydroxypropan-2-yl)-imidazol-1-yl]-pyridine-4-carboxamide]
- Kb: 150 nM

Compound: CC(C)(C)NC(=O)c1cc(-c2ccc(F)cc2)nc(-n2ccnc2C2CC2)c1 [Example 4, N-tert-Butyl-2-(2-cyclopropyl-imidazol-1-yl)-6-(4-fluorophenyl)-pyridine-4-carboxamide]
- Kb: 160 nM

Compound: CC(C)(C)c1nccn1-c1cc(C(=O)NC(C)(C)C2CC2)cc(-c2ccc(Cl)cc2)n1 [Example 17, 2-(2-tert-Butylimidazol-1-yl)-6-(4-chlorophenyl)-N-(2-cyclopropyl-propan-2-yl)-pyridine-4-carboxamide]
- Kb: 280 nM

Compound: CC(C)(O)c1nccn1-c1cc(C(=O)NC(C)(C)C(F)(F)F)cc(-c2ccc(Cl)cc2)n1 [Example 36, 2-(4-Chlorophenyl)-6-[2-(2-hydroxypropan-2-yl)-imidazol-1-yl]-N-(1,1,1-trifluoro-2-methylpropan-2-yl)-pyridine-4-carboxamide]
- Kb: 78 nM

Compound: Cc1nccn1-c1cc(C(=O)NC(C)(C)C)cc(-c2ccc(F)cc2)n1 [Example 7, N-tert-Butyl-2-(4-fluorophenyl)-6-(2-methyl-imidazol-1-yl)-pyridine-4-carboxamide]
- Kb: 430 nM

Compound: CC(C)(NC(=O)c1cc(-c2ccc(Cl)cc2)nc(-n2ccnc2C2CC2)c1)C(F)(F)F [Example 24, 2-(4-Chlorophenyl)-6-(2-cyclopropyl-imidazol-1-yl)-N-(1,1,1-trifluoro-2-methylpropan-2-yl)-pyridine-4-carboxamide]
- Kb: 510 nM

Compound: CC(C)(C)NC(=O)c1cc(-c2ccc(C(F)(F)F)cc2)nc(-n2ccnc2C2CC2)c1 [Example 20, N-tert-Butyl-2-(2-cyclopropyl-imidazol-1-yl)-6-[4-(trifluoromethyl)-phenyl]-pyridine-4-carboxamide]
- Kb: 290 nM

Compound: CCc1nccn1-c1cc(C(=O)NC(C)(C)C)cc(-c2ccc(F)cc2)n1 [Example 8, N-tert-Butyl-2-(2-ethyl-imidazol-1-yl)-6-(4-fluorophenyl)-pyridine-4-carboxamide]
- Kb: 210 nM

Compound: CC(C)(C)NC(=O)c1cc(-c2ccc(F)cc2)nc(-n2ccnc2)c1 [Example 6, N-tert-Butyl-2-(4-fluorophenyl)-6-imidazol-1-yl-pyridine-4-carboxamide]
- Kb: 1000 nM

Compound: CC(C)(NC(=O)c1cc(-c2ccc(Cl)cc2)nc(-n2ccnc2C2CC2)c1)C1CC1 [Example 16, 2-(4-Chlorophenyl)-6-(2-cyclopropyl-imidazol-1-yl)-N-(2-cyclopropyl-propan-2-yl)-pyridine-4-carboxamide]
- Kb: 300 nM

Compound: CC(C)(C)NC(=O)c1cc(-c2ccc(C(F)(F)F)cc2)nc(-n2ccnc2C(C)(C)O)c1 [Example 34, N-tert-Butyl-2-[2-(2-hydroxypropan-2-yl)-imidazol-1-yl]-6-[4-(trifluoromethyl)-phenyl]-pyridine-4-carboxamide]
- Kb: 240 nM

Compound: CC(C)(C)NC(=O)c1cc(-c2ccc(Cl)cc2)nc(-n2ccnc2C2CC2)c1 [Example 5, N-tert-Butyl-2-(4-chlorophenyl)-6-(2-cyclopropyl-imidazol-1-yl)-pyridine-4-carboxamide]
- Kb: 120 nM
